In PubChem BioAssay AID1919005 (Molecular Pharmacology Branch, DTP, NCI, 2023):

System: 855422-203-R-J1-PDC complex spheroid growth
Assay: Anticancer human tumor 855422-203-R-J1-PDC patient-derived bladder carcinoma cell line growth inhibition [AhR]
Conditions: for IC50: curve of first compound; for viability, T/C: stronger effect = lower value
Summary of the method: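 Spheroids combined tumor cells with HUVEC endothelial cells and human MSCs as stroma. AhR antagonists were paired with standard or investigational drugs, each dosed in half-log steps down from near clinical Cmax, or from 10 microM where Cmax was unknown.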

[1] = second compound 0.1 µM, first compound 0.0316 µM
[2] = second compound 0.1 µM, first compound 0.1 µM
[3] = second compound 0.1 µM, first compound 0.316 µM
[4] = second compound 0.1 µM, first compound 1 µM
[5] = second compound 0.316 µM, first compound 0.0316 µM
[6] = second compound 0.316 µM, first compound 0.1 µM
[7] = second compound 0.316 µM, first compound 0.316 µM
[8] = second compound 0.316 µM, first compound 1 µM
[9] = second compound 1 µM, first compound 0.0316 µM
[10] = second compound 1 µM, first compound 0.1 µM
[11] = second compound 1 µM, first compound 0.316 µM
[12] = second compound 1 µM, first compound 1 µM
[13] = second compound 3.16 µM, first compound 0.0316 µM
[14] = second compound 3.16 µM, first compound 0.1 µM
[15] = second compound 3.16 µM, first compound 0.316 µM
[16] = second compound 3.16 µM, first compound 1 µM
[17] = second compound 10 µM, first compound 0.0316 µM
[18] = second compound 10 µM, first compound 0.1 µM
[19] = second compound 10 µM, first compound 0.316 µM
[20] = second compound 10 µM, first compound 1 µM
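Also: spheroids exposed to agents for seven days before readout.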
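For viability, T/C in this document: percent of DMSO vehicle control luminescence viability.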

| SMILES | IC50 (second compound 0.1 µM) [nM] | IC50 (second compound 0.316 µM) [nM] | IC50 (second compound 1 µM) [nM] | IC50 (second compound 3.16 µM) [nM] | IC50 (second compound 10 µM) [nM] | viability, T/C [1] [%] | viability, T/C [2] [%] | viability, T/C [3] [%] | viability, T/C [4] [%] | viability, T/C [5] [%] | viability, T/C [6] [%] | viability, T/C [7] [%] | viability, T/C [8] [%] | viability, T/C [9] [%] | viability, T/C [10] [%] | viability, T/C [11] [%] | viability, T/C [12] [%] | viability, T/C [13] [%] | viability, T/C [14] [%] | viability, T/C [15] [%] | other results |
| --- | --- | --- | --- | --- | --- | --- | --- | --- | --- | --- | --- | --- | --- | --- | --- | --- | --- | --- | --- | --- | --- |
| CC(C)c1c(-c2ccccc2)nc2c(C#N)c[nH]n2c1=O + CC(CO)NC(=O)c1cc(-c2ccc(Cl)cc2)nn(-c2cnn(C)c2)c1=O | > 10000 | > 10000 | > 10000 | > 10000 | > 10000 | 103 | 100 | 95.2 | 85.6 | 93.1 | 105 | 95.8 | 105 | 103 | 106 | 104 | 99.8 | 97.3 | 106 | 99.2 | viability, T/C (second compound 0.1 µM, first compound 3.16 µM): 92.4%; viability, T/C (second compound 0.1 µM, first compound 10 µM): 91.8%; viability, T/C (second compound 0.316 µM, first compound 3.16 µM): 98.8%; viability, T/C (second compound 0.316 µM, first compound 10 µM): 92%; viability, T/C (second compound 1 µM, first compound 3.16 µM): 99.6%; viability, T/C (second compound 1 µM, first compound 10 µM): 96.5%; viability, T/C [16]: 93.6%; viability, T/C (second compound 3.16 µM, first compound 3.16 µM): 91.3%; viability, T/C (second compound 3.16 µM, first compound 10 µM): 110%; viability, T/C [17]: 86.9%; viability, T/C [18]: 90.9%; viability, T/C [19]: 91.7%; viability, T/C [20]: 98%; viability, T/C (second compound 10 µM, first compound 3.16 µM): 93%; viability, T/C (second compound 10 µM, first compound 10 µM): 92.1% |
| CC1COCCN1c1cc(-c2ccnn2C)c2ccnc(-c3ccn[nH]3)c2n1 (stereo not given) + CC(CO)NC(=O)c1cc(-c2ccc(Cl)cc2)nn(-c2cnn(C)c2)c1=O | 444 | 347 | 298 | 237 | 178 | 93.2 | 94.2 | 61.4 | 22.8 | 78.5 | 95.3 | 52.5 | 21.1 | 88 | 84.9 | 47.9 | 17.6 | 90 | 76.5 | 41.2 | viability, T/C (second compound 0.1 µM, first compound 0.00316 µM): 94.2%; viability, T/C (second compound 0.1 µM, first compound 0.01 µM): 85%; viability, T/C (second compound 0.316 µM, first compound 0.00316 µM): 94.5%; viability, T/C (second compound 0.316 µM, first compound 0.01 µM): 87.4%; viability, T/C (second compound 1 µM, first compound 0.00316 µM): 97.3%; viability, T/C (second compound 1 µM, first compound 0.01 µM): 89.4%; viability, T/C (second compound 3.16 µM, first compound 0.00316 µM): 85.7%; viability, T/C (second compound 3.16 µM, first compound 0.01 µM): 91.8%; viability, T/C [16]: 17.7%; viability, T/C (second compound 10 µM, first compound 0.00316 µM): 85.5%; viability, T/C (second compound 10 µM, first compound 0.01 µM): 94.7%; viability, T/C [17]: 78.5%; viability, T/C [18]: 68.9%; viability, T/C [19]: 32.2%; viability, T/C [20]: 19.8% |
